One compound from ChEMBL document CHEMBL5523723, “G Protein-Coupled Estrogen Receptor-Mediated Anti-Inflammatory and Mucosal Healing Activity of a Trimethylpyridinol Analogue in Inflammatory Bowel Disease” (J Med Chem, 2024) can be followed below.

Each structure is given as a SMILES string.

One data set has as its target CYP2C19 (Homo sapiens, UniProt P33261). Kind of data set: Inhibition of CYP2C19 in human liver microsomes assessed as remaining activity at 10 uM using 5-mephenytoin as substrate preincubated for 5 mins followed by NADPH generating system addition for 15 mins by LC-MS/MS method relative to control. Format: ADME, Microsome. The conditions noted are these: probe 5-mephenytoin, time 20 min, read-out: Activity. In general terms: Liver microsomes are a subcellular fraction often used to study metabolism.

In another data set the target is CYP2D6 (Homo sapiens, UniProt P10635). The data set can be described thus: Inhibition of CYP2D6 in human liver microsomes assessed as remaining activity at 10 uM using dextromethorphan as substrate preincubated for 5 mins followed by NADPH generating system addition for 15 mins by LC-MS/MS method relative to control. Format: ADME, Microsome. The conditions noted are these: probe dextromethorphan, time 20 min, read-out: Activity.

Data set [1] is described as follows: Acute toxicity in ICR mouse assessed as change in kidney weight at 30 to 300 mg/kg, po measured every other day for 14 days […]. Format: organism-based. Particulars: in vivo, 336 h, dose 30-300 mg/kg, time 14 day.
The nature of data set [2]: Acute toxicity in ICR mouse assessed as change in liver weight at 30 to 300 mg/kg, po measured every other day for 14 days […]. Format: organism-based. Particulars: in vivo, 336 h, dose 30-300 mg/kg, time 14 day.
Data set [3] can be described thus: AUC(0 to t) in Sprague-Dawley rat at 1 mg/kg, iv by LC-MS analysis. Format: ADME, organism-based. The conditions noted are these: in vivo.
The nature of data set [4]: Volume of distribution at steady state in Sprague-Dawley rat at 1 mg/kg, iv by LC-MS analysis. Type of data set: ADME, organism-based. The conditions noted are these: in vivo, read-out: Vdss.
Data set [5] is described as follows: Mean residence time in Sprague-Dawley rat at 1 mg/kg, po by LC-MS analysis. Type of data set: ADME, organism-based. Particulars: in vivo.
Data set [6] is described as follows: Cmax in Sprague-Dawley rat at 5 mg/kg, po by LC-MS analysis. Type of data set: ADME, organism-based. The conditions noted are these: in vivo.
Data set [7] in a line: Half life in Sprague-Dawley rat at 5 mg/kg, po by LC-MS analysis. Type of data set: ADME, organism-based. The conditions noted are these: in vivo.
The nature of data set [8]: Mean residence time in Sprague-Dawley rat at 5 mg/kg, po by LC-MS analysis. Format: ADME, organism-based. Particulars: in vivo.
The target in data set [9] is T1, G-protein coupled estrogen receptor 1 (Homo sapiens, UniProt Q99527). The data set can be described thus: Inhibition of GPER1 (unknown origin).
For data set [10], the target named is T1, G-protein coupled estrogen receptor 1. Kind of data set: Binding affinity to human GPER by SPR method.
In data set [11] the test system is U-937. Kind of data set: Induction of apoptosis in human U-937 cells assessed as viable cells at 1 uM incubated for 24 hrs by Annexin V FITC/PI staining based flow cytometry analysis ( Rvb = 95.2 +/- 0.4%). Format: functional. Particulars: read-out: Activity. On the technique in general: Flow cytometry measures light scatter and fluorescence of single cells or particles in a stream.

The subject of data set [12] is U-937. The data set can be described thus: Induction of apoptosis in human U-937 cells assessed as viable cells at 10 uM incubated for 24 hrs by Annexin V FITC/PI staining based flow cytometry analysis ( Rvb = 95.2 +/- 0.4%). Format: functional. Particulars: read-out: Activity.

T1 sequence (Q99527 whole entry): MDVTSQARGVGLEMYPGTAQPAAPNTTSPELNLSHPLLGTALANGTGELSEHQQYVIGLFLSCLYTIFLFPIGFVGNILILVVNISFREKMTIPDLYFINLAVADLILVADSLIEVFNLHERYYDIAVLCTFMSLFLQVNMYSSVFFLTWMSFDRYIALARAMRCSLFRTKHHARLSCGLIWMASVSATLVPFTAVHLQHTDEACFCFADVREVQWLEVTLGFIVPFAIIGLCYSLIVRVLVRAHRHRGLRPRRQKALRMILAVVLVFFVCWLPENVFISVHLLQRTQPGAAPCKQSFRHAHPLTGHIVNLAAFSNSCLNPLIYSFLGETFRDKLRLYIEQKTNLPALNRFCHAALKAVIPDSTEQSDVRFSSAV
Chain of CYP2D6 (P10635 whole entry): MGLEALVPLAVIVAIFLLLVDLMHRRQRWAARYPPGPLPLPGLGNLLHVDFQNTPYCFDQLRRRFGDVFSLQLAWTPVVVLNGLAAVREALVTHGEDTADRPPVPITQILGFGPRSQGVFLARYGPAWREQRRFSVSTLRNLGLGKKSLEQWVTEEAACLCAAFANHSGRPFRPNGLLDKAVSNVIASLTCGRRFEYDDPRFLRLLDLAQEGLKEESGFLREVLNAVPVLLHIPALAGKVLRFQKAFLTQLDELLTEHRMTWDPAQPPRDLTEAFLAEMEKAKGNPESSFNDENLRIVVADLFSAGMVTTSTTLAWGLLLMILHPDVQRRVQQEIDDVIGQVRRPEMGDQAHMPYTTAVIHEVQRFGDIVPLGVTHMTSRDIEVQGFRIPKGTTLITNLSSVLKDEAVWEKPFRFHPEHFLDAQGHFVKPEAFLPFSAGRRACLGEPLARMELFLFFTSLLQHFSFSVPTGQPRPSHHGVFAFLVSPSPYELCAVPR
Chain of CYP2C19 (P33261 whole entry): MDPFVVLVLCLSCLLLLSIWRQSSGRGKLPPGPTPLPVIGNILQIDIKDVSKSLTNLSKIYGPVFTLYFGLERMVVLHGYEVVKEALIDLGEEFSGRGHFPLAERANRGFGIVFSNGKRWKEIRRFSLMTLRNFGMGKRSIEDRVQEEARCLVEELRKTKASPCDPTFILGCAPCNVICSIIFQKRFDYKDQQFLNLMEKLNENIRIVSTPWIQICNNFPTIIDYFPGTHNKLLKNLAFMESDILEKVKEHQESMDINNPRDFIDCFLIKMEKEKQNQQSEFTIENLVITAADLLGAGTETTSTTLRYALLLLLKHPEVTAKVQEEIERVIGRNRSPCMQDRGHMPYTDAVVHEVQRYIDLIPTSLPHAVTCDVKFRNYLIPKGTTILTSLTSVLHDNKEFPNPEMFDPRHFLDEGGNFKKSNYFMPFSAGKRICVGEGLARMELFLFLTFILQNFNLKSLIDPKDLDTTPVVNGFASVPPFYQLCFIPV

As to `Cc1nc(NC(=O)c2sc3cc(F)ccc3c2Cl)c(C)c(C)c1O`, the values for the activity at 0.25 h, 10 µM on CYP2C19 and on CYP2D6 were 98.3% and 86%, respectively. The Activity entry in data set [1] and in data set [2] was “Non-Toxic” in each case. Besides, the AUCt in data set [3] is 10006.6 ng·h/mL. The Vd in [4] turned out to be 1.3 L/kg. For the same compound, the MRT turned out to be 5.7 h in [5] and 5 h in data set [8]. This compound showed a Cmax in data set [6] of 760 ng/mL. This compound showed a half-life in data set [7] of 3.3 h. The EC50 in data set [9] worked out at 480 nM. The same compound displayed a Kd in data set [10] of 23.7 nM. Besides, the viability at 1 µM in the data set on U-937 [11] is 95.4%. In the data set with U-937 [12], the viability at 10 µM came out at 95.2%.

Broadly, the MRT is a mean duration of stay, worked out from the concentration-time curve. A word on the Cmax: it is the highest concentration seen after dosing. Broadly, the half-life is the time needed for the level to fall by half in the phase considered. The EC50 is the concentration needed to bring the measured effect to its halfway point. High values mean lower potency in that assay, low ones higher potency in that assay. As usually defined, the Kd is the constant that tells how readily two partners part at equilibrium. A low value points to tighter binding.
